1 compound from patent US12378199B2, “Rigidified pentadentate chelating agents useful for the [Al18F]2+ labelling of biomolecules” (UNIVERSITÀ DEGLI STUDI DEL PIEMONTE ORIENTALE “A. AVOGADRO”, priority 2019, dated 2025) can be followed below.

The data set in a line: stability of the AlF-18 complexes by incubation in human serum. It is filed as in vitro ADME. As to the method:
The reactions for labelling with [AlF-18]^2+ were carried out at various pH (between 4 and 6.5) and at various temperatures (25, 37 and 80°). The preparation of [AlF-18]^2+ and the subsequent labelling with the chelating agents covered by the present patent were carried out according to the procedure cited by Bormans and colleagues (Nature Prot. 2018, 13, 2330-2347). The labeled products were purified using Sep-Pak Alumina N Plus Light cartridges and eluted with a 0.9% NaCl solution. All of the products were analyzed by means of radio-TLC and radio-HPLC and the stability of the tracers was studied at 10, 30, 60, 120 and 240 minutes by means of incubation in […] different solutions: human serum, PBS, EDTA 5 mM and 0.9% NaCl solutions.
An additional advantage is the stability in human serum detected for the compounds of the present invention. An increased stability in human serum was measured for the chelating agent 2-AMPDA-HB, with 90% of AlF-18 still complexed after 120 minutes, whereas the complexed percentage was 55% for the chelating agent 2-AMPTA.

Consider `O=C(O)CN(CC(=O)O)CC1CCCCN1CC(=O)O` (centres unmarked) [2-AMPTA], for which, where the note is “after 120 minutes”, the “AlF-18 still complexed in human serum” value is reported as 55%. In addition, the “stability of the AlF-18 complexes in human serum” value (after 240 minutes) came out at 33%.
